Drawing on patent US20250051356A1, “RIFABUTIN ANALOGS FOR THE TREATMENT OF DISEASE” (priority 2021, published 2025), this text covers MIC for seven molecules.

What all share (format): cell-based
In test [1] the test system is S. aureus (UAMS-1625 strain). The test can be described thus: MIC by broth microdilution against S. aureus. Particulars: Staphylococcus aureus, read-out: MIC S. aureus. On the technique in general: In broth dilution the organism is exposed to a series of concentrations in liquid medium.
In test [2] the test system is A. baumannii (HUMC1 strain). The test can be described thus: MIC by broth microdilution against A. baumannii in RPMI + 10% FCS. Particulars: Acinetobacter baumannii; HUMC1 strain; RPMI + 10% FCS; read-out: MIC A. baumannii.
Test [3] relates to M. xenopi (ATCC 19250). The test can be described thus: MIC against M. xenopi in CAMHB + ADC. As to conditions: Mycobacterium xenopi, ATCC19250; ATCC 19250; CAMHB + ADC (5%); read-out: MIC M. xenopi.
In test [4] the test system is M. abscessus subsp. abscessus ATCC 19977. The test can be described thus: MIC against M. abscessus in Middlebrook 7H9 + ADC. As to conditions: Mycobacteroides abscessus.
In test [5] the test system is M. kansasii (ATCC 12478). The test can be described thus: MIC against M. kansasii in CAMHB + ADC. As to conditions: Mycobacterium kansasii, ATCC12478; ATCC 12478; CAMHB + ADC (5%); read-out: MIC M. kansasii.
Test [6] has as its system M. avium (ATCC 25291). The test can be described thus: MIC against M. avium in CAMHB + ADC. As to conditions: Mycobacterium avium, ATCC25291; ATCC 25291; CAMHB + ADC (5%); read-out: MIC M. avium.
Where [7] appears, read: ATCC19977, ATCC 19977, 7H9 + ADC, read-out: MIC M. abscessus.

In brackets after ≈: the same amount, converted by molar mass. Like-named read-outs stand apart in the source and are kept apart here.

Regarding `CO[C@H]1/C=C/O[C@@]2(C)Oc3c(C)c(O)c4c(c3C2=O)C2=NC3(CCN(CC(C)C)CC3)NC2=C(NC(=O)/C(C)=C\C=C\[C@H](C)[C@H](O)[C@@H](C)[C@@H](O)[C@@H](C)[C@H](OC(=O)CC(=O)N2CCCN(c3ccc(F)cc3)CC2)[C@@H]1C)C4=O` [Compound 66], the MIC (in general, the lowest concentration that inhibits growth of the organism) came to 0.125 µg/mL (≈ 0.117 µM) in test [1]; 0.016 µg/mL in test [2]; 0.06 µg/mL in test [3]; 0.125 µg/mL in test [4] (ATCC19977, read-out: MIC M. abscessus); 0.016 µg/mL in test [5]; 0.125 µg/mL in test [6].
On to `CO[C@H]1/C=C/O[C@@]2(C)Oc3c(C)c(O)c4c(c3C2=O)C2=NC3(CCN(CC(C)C)CC3)NC2=C(NC(=O)/C(C)=C\C=C\[C@H](C)[C@H](O)[C@@H](C)[C@@H](O)[C@@H](C)[C@H](OC(=O)CC(=O)N2CCC(OC3CCC(C)CC3)CC2)[C@@H]1C)C4=O` (stereo partly drawn) [Compound 67], for which the minimum inhibitory concentration (MIC) in test [1] was found to be 0.25 µg/mL (≈ 0.234 µM); in test [2], 0.008 µg/mL; in test [3] it was 0.125 µg/mL; in test [4] (setting [7]) it was 0.125 µg/mL; in test [5] it was 0.008 µg/mL; in test [6], 0.25 µg/mL.
As for `CO[C@H]1/C=C/O[C@@]2(C)Oc3c(C)c(O)c4c(c3C2=O)C2=NC3(CCN(CC(C)C)CC3)NC2=C(NC(=O)/C(C)=C\C=C\[C@H](C)[C@H](O)[C@@H](C)[C@@H](O)[C@@H](C)[C@H](OC(=O)CC(=O)N2CCC3C(CCCN3Cc3ccccc3)C2)[C@@H]1C)C4=O` (stereo partly drawn) [Compound 68], the MIC is 0.5 µg/mL (≈ 0.453 µM) in test [1]; 0.03 µg/mL in test [2]; 0.125 µg/mL in test [3]; 0.25 µg/mL in test [4] (setting [7]); 0.001 µg/mL in test [5]; 0.03 µg/mL in test [6].
On to `CCC(C(=O)O[C@H]1[C@H](C)[C@H](O)[C@H](C)[C@@H](O)[C@@H](C)/C=C/C=C(/C)C(=O)NC2=C3NC4(CCN(CC(C)C)CC4)N=C3c3c(c(O)c(C)c4c3C(=O)[C@@](C)(O/C=C/[C@H](OC)[C@H]1C)O4)C2=O)C(=O)N1CCCN(c2ccc(F)cc2)CC1` (stereo partly drawn) [Compound 79], for which the MIC came out at 0.5 µg/mL (≈ 0.456 µM) in test [1]; 0.03 µg/mL in test [2]; 0.03 µg/mL in test [3]; 0.125 µg/mL in test [4] (setting [7]); 0.004 µg/mL in test [5]; 0.125 µg/mL in test [6].
With `CO[C@H]1/C=C/OC2(C)Oc3c(C)c(O)c4c(c3C2=O)C2=NC3(CCN(CC(C)C)CC3)NC2=C(NC(=O)/C(C)=C\C=C\[C@H](C)[C@H](O)[C@@H](C)[C@@H](O)[C@@H](C)[C@H](OC(=O)CCC(=O)N2CCC(N(C)c3ccccc3)CC2)[C@@H]1C)C4=O` (stereo partly drawn) [Compound 82], the MIC came to 0.5 µg/mL (≈ 0.464 µM) in test [1]; 0.016 µg/mL in test [2]; 0.03 µg/mL in test [3]; 0.25 µg/mL in test [4] (setting [7]); 0.016 µg/mL in test [5]; 0.25 µg/mL in test [6].
In the case of `CO[C@H]1/C=C/OC2(C)Oc3c(C)c(O)c4c(c3C2=O)C2=NC3(CCN(CC(C)C)CC3)NC2=C(NC(=O)/C(C)=C\C=C\[C@H](C)[C@H](O)[C@@H](C)[C@@H](O)[C@@H](C)[C@H](OC(=O)CCC(=O)N2CCCN(c3ccc(F)cc3)CC2)[C@@H]1C)C4=O` (stereo partly drawn) [Compound 83], the MIC in test [1] turned out to be 0.5 µg/mL (≈ 0.462 µM); in test [2], 0.016 µg/mL; in test [3], 0.03 µg/mL; in test [4] (setting [7]), 0.25 µg/mL; in test [5], 0.008 µg/mL; in test [6] it was 0.25 µg/mL.
Take `CO[C@H]1/C=C/OC2(C)Oc3c(C)c(O)c4c(c3C2=O)C2=NC3(CCN(CC(C)C)CC3)NC2=C(NC(=O)/C(C)=C\C=C\[C@H](C)[C@H](O)[C@@H](C)[C@@H](O)[C@@H](C)[C@H](OC(=O)CCCC(=O)N2CCCN(c3ccc(F)cc3)CC2)[C@@H]1C)C4=O` (stereo partly drawn) [Compound 86]: the minimum inhibitory concentration (MIC) in test [1] was 0.5 µg/mL (≈ 0.456 µM); in test [2], 0.008 µg/mL; in test [3], 0.03 µg/mL; in test [4] (setting [7]) it was 0.125 µg/mL; in test [5] it was 0.008 µg/mL; in test [6], 0.125 µg/mL.
